Reference: patent US9609868B2, “Alkoximino-substituted anthranilic acid diamides as pesticides” (BAYER CROPSCIENCE AKTIENGESELLSCHAFT, priority 2013, dated 2017)

How the values were obtained:
[1] = tested on: Myzus persicae; experiment: Myzus persicae - spray test (MYZUPE); type: in vivo; conditions: Chinese cabbage leaf disks
Experimental: Myzus persicae—Spray Test (MYZUPE)
Solvent: 78 parts by weight of acetone • • 1.5 parts by weight of dimethylformamide
(§1) Emulsifier: 0.5 parts by weight of alkylaryl polyglycol ether
(§2) To produce a suitable active compound preparation, 1 part by weight of active compound is mixed with the stated amounts of solvent and emulsifier, and the concentrate is diluted with emulsifier-containing water to the desired concentration.
Disks of Chinese cabbage leaves (Brassica pekinensis) infested by all stages of the green peach aphid (Myzus persicae) are sprayed with an active compound preparation of the desired concentration.
After the desired period of time, the efficacy in % is determined. 100% means that all the aphids have been killed; 0% means that none of the aphids have been killed.

[2] = tested on: Phaedon cochleariae; experiment: Phaedon cochleariae - spray test (PHAECO); type: in vivo; conditions: application rate 100 g/ha, Chinese cabbage leaf disks
Experimental: Phaedon cochleariae—Spray Test (PHAECO)
(§3) Solvent: 78.0 parts by weight of acetone • • 1.5 parts by weight of dimethylformamide
as §1, §2
After the desired period of time, the efficacy in % is determined. 100% means that all the beetle larvae have been killed; 0% means that no beetle larvae have been killed.

[3] = log P by HPLC on reversed-phase column (C18), EEC directive 79/831 Annex V.A8; type: physicochemical; conditions: HPLC reversed-phase C18, 43° C., data refer to the E isomer
Experimental: The log P values reported in the tables and Preparation Examples above were determined in accordance with EEC directive 79/831 Annex V.A8 by HPLC (High Performance Liquid Chromatography) using a reversed-phase column (C18). Temperature 43° C. The calibration is effected with unbranched alkan-2-ones (having 3 to 16 carbon atoms), for which the log P values are known.

[4] = tested on: Spodoptera frugiperda; experiment: Spodoptera frugiperda - spray test (SPODFR); type: in vivo; conditions: application rate 100 g/ha, maize leaf disks
Experimental: Spodoptera frugiperda—Spray Test (SPODFR)
as §3, §1, §2
Leaf disks of maize (Zea mays) are sprayed with an active compound preparation of the desired concentration and, after drying, populated with caterpillars of the armyworm (Spodoptera frugiperda).
After the desired period of time, the efficacy in % is determined. 100% means that all the caterpillars have been killed; 0% means that no caterpillars have been killed.

SMILES	efficacy (aphids killed) ([1]; application rate 100 g/ha)	efficacy (beetle larvae killed) [2]	log p ([3]; Table A)	efficacy (caterpillars killed) [4]	log p ([3]; Table B)	log p ([3]; Table C)	efficacy (aphids killed) ([1]; application rate 20 g/ha)
CON=Cc1cc(C)c(NC(=O)c2cc(C(F)(F)F)nn2-c2ncccc2Cl)c(C(=O)N(C)NC(=O)OC)c1 (mixture of isomers) [A-48]	100%	100%	3.00	100%			
CON=Cc1cc(C)c(NC(=O)c2cc(OC(F)F)nn2-c2ncccc2Cl)c(C(=O)NN(C)C(=O)OC)c1 (mixture of isomers) [A-49]	90%	100%	2.60	100%			
CON=Cc1cc(C)c(NC(=O)c2cc(Br)nn2-c2ncccc2Cl)c(C(=O)NC2COC2)c1 (mixture of isomers) [B-03]	100%	100%		100%	2.44		
CON=Cc1cc(C)c(NC(=O)c2cc(C(F)(F)F)nn2-c2ncccc2Cl)c(C(=O)NC2C[S+]([O-])C2)c1 (mixture of isomers) [B-05]	90%	100%		100%	2.51		
CON=Cc1cc(C)c(NC(=O)c2cc(C(F)(F)F)nn2-c2ncccc2Cl)c(C(=O)NC2CSC2)c1 (mixture of isomers) [B-06]	90%	100%		100%	3.46		
CON=Cc1cc(C)c(NC(=O)c2cc(OC)nn2-c2ncccc2Cl)c(C(=O)NC2COC2)c1 (mixture of isomers) [B-10]	100%	100%		100%	2.04		
CON=Cc1cc(C)c(NC(=O)c2cc(C(F)F)nn2-c2ncccc2Cl)c(C(=O)NC2COC2)c1 (mixture of isomers) [B-11]	100%	100%		100%	2.31		
CON=Cc1cc(C)c(NC(=O)c2cc(OC)nn2-c2ncccc2Cl)c(C(=O)NC(C)C)c1 (mixture of isomers) [C-32]	90%	100%		100%		3.22	
CNC(=O)c1cc(C=NOC)cc(C)c1NC(=O)c1cc(OC)nn1-c1ncccc1Cl (mixture of isomers) [C-33]	90%	100%		100%		2.70	
CON=Cc1cc(C)c(NC(=O)c2cc(OC)nn2-c2ncccc2Cl)c(C(=O)NC(C)(C)C)c1 (mixture of isomers) [C-37]	90%	100%		100%		3.71	
C#CCOC(=O)NNC(=O)c1cc(C=NOC)cc(C)c1NC(=O)c1cc(Br)nn1-c1ncccc1Cl [A-08]	100%	100%	2.58	100%			
COCCOC(=O)NNC(=O)c1cc(C=NOC)cc(C)c1NC(=O)c1cc(C(F)(F)F)nn1-c1ncccc1Cl [A-20]	90%	100%	2.74	100%			
C=CCOC(=O)NNC(=O)c1cc(C=NOC)cc(C)c1NC(=O)c1cc(C(F)(F)F)nn1-c1ncccc1Cl [A-21]	90%	100%	3.04	100%			
CON=Cc1cc(C)c(NC(=O)c2cc(C(F)(F)F)nn2-c2ncccc2Cl)c(C(=O)NNS(C)(=O)=O)c1 [A-23]	100%	100%	2.63	100%			
CON=Cc1cc(C)c(NC(=O)c2cc(C(F)(F)F)nn2-c2ncccc2Cl)c(C(=O)NC(C)CSC)c1 (stereo not shown) [C-05]	100%	100%		100%		3.72	
CON=Cc1cc(C)c(NC(=O)c2cc(OC(C)C)nn2-c2ncccc2Cl)c(C(=O)NC(C)C)c1 [C-07]	90%	100%		100%		3.29	
CON=Cc1cc(C)c(NC(=O)c2cc(OC(C)C)nn2-c2ncccc2Cl)c(C(=O)NC(C)C2CC2)c1 (stereo not shown) [C-08]	90%	100%		100%		3.65	

SMILES	efficacy (aphids killed) ([1]; application rate 100 g/ha)	efficacy (beetle larvae killed) [2]	log p ([3]; Table A)	efficacy (caterpillars killed) [4]	log p ([3]; Table B)	log p ([3]; Table C)	efficacy (aphids killed) ([1]; application rate 20 g/ha)
CON=Cc1cc(C)c(NC(=O)c2cc(OC(C)C)nn2-c2ncccc2Cl)c(C(=O)NC(C)(C)C)c1 [C-09]	100%	100%		100%		3.74	
CCOc1cc(C(=O)Nc2c(C)cc(C=NOC)cc2C(=O)NC)n(-c2ncccc2Cl)n1 [C-10]	100%	100%		100%		2.48	
CCOc1cc(C(=O)Nc2c(C)cc(C=NOC)cc2C(=O)NC(C)(C)C)n(-c2ncccc2Cl)n1 [C-11]	100%	100%		100%		3.42	
CON=Cc1cc(C)c(NC(=O)c2cc(OCC(F)F)nn2-c2ncccc2Cl)c(C(=O)NC2CC2)c1 [C-17]	90%	100%		100%		2.91	
CON=Cc1cc(C)c(NC(=O)c2cc(OCC(F)F)nn2-c2ncccc2Cl)c(C(=O)NC(C)(C)C)c1 [C-21]	100%	83%		100%		3.43	
CNC(=O)c1cc(C=NOC)cc(C)c1NC(=O)c1cc(OC)nn1-c1ncccc1Cl [C-22]	100%	100%		100%		2.15	
CON=Cc1cc(C)c(NC(=O)c2cc(OC)nn2-c2ncccc2Cl)c(C(=O)NC2CC2)c1 [C-23]	100%	100%		100%		2.40	
CON=Cc1cc(C)c(NC(=O)c2cc(OC)nn2-c2ncccc2Cl)c(C(=O)NC(C)C2CC2)c1 (stereo not shown) [C-25]	100%	100%		100%		3.02	
CON=Cc1cc(C)c(NC(=O)c2cc(OC)nn2-c2ncccc2Cl)c(C(=O)NC(C)(C)C)c1 [C-26]	100%	100%		100%		3.06	
CCOc1cc(C(=O)Nc2c(C)cc(C=NOC)cc2C(=O)NC(C)C2CC2)n(-c2ncccc2Cl)n1 (stereo not shown) [C-27]	90%	100%		100%		3.38	
CON=Cc1cc(C)c(NC(=O)c2cc(C(F)F)nn2-c2ncccc2Cl)c(C(=O)NC(C)(C)C)c1 [C-35]	90%	100%		100%		3.34	
CON=Cc1cc(C)c(NC(=O)c2cc(C(F)F)nn2-c2ncccc2Cl)c(C(=O)NC(C)C2CC2)c1 (stereo not shown) [C-36]	90%	100%		100%		3.29	
CCNC(=O)c1cc(C=NOC)cc(C)c1NC(=O)c1cc(OC)nn1-c1ncccc1Cl [C-47]	100%	100%		100%		2.41	
C#CCNC(=O)c1cc(C=NOC)cc(C)c1NC(=O)c1cc(OC)nn1-c1ncccc1Cl [C-48]	100%	100%		100%		2.40	
CON=Cc1cc(C)c(NC(=O)c2cc(CF)nn2-c2ncccc2Cl)c(C(=O)NC(C)C)c1 [C-49]	90%	100%		100%		2.65	
CCNC(=O)c1cc(C=NOC)cc(C)c1NC(=O)c1cc(CF)nn1-c1ncccc1Cl [C-53]	90%	100%		100%		2.39	
COCCNC(=O)c1cc(C=NOC)cc(C)c1NC(=O)c1cc(CF)nn1-c1ncccc1Cl [C-56]		100%		100%		2.27	90%
